The source made the active and inactive calls.
Columns and labels:
[1] = target: T1, 5-hydroxytryptamine receptor 2B (Homo sapiens, UniProt P41595); test: GPCRScan assay: inhibition of 5-HT2B; design: radioligand conc. used [nm] 1.0 – 2.0, parental cells stable HEK
[2] = target: T2, Sodium-dependent dopamine transporter (Homo sapiens, UniProt Q01959); test: GPCRScan assay: inhibition of DAT; design: radioligand conc. used [nm] 3.6 – 16.0, parental cells stable HEK
Activin receptor type-1B [3] = target: T3, Activin receptor type-1B (Homo sapiens, UniProt P36896); test: Lathascreen (Takeda) (ACVR1B)
T3 sequence (P36896 whole entry): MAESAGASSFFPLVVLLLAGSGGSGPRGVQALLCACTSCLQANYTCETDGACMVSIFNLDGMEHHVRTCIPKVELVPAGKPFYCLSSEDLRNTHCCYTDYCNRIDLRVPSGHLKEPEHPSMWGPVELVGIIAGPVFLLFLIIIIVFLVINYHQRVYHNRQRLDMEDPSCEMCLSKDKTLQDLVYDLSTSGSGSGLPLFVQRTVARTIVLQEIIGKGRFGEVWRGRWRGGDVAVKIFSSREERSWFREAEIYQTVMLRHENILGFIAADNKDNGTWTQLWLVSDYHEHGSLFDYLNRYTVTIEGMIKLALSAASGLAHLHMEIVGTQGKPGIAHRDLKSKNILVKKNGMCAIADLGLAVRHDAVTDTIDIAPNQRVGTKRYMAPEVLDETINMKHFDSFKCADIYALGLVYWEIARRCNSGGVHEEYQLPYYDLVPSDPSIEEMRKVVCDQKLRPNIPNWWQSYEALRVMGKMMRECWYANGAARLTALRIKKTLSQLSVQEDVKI

Activin receptor type-1B [4] = target: T3, Activin receptor type-1B; test: Reporter gene assay (ACVR1B)
Activin receptor type-1B [5] = target: T3, Activin receptor type-1B; test: Radioactive kinase assay (ACVR1B)
[6] = target: Tyrosine-protein kinase JAK1 (Homo sapiens, UniProt P23458); test: NanoBRET (SGC Frankfurt) (JAK1)
[7] = target: Phosphatidylinositol 4,5-bisphosphate 3-kinase catalytic subunit alpha isoform (Homo sapiens, UniProt P42336); test: NanoBRET (SGC Frankfurt) (PIK3CA)
[8] = target: Calcium/calmodulin-dependent protein kinase type 1B (Homo sapiens, UniProt Q6P2M8); test: NanoBRET (SGC Frankfurt) (PNCK)
[9] = target: Epithelial discoidin domain-containing receptor 1 (Homo sapiens, UniProt Q08345); test: NanoBRET (SGC Frankfurt) (DDR1)
[10] = target: 5-hydroxytryptamine receptor 1A (Homo sapiens) (UniProt P08908); conditions: Compound concentration 10.0 uM
[11] = target: 5-hydroxytryptamine receptor 1B (Homo sapiens) (UniProt P28222); conditions: Compound concentration 10.0 uM
[12] = target: 5-hydroxytryptamine receptor 1D (Homo sapiens) (UniProt P28221); conditions: Compound concentration 10.0 uM
[13] = target: 5-hydroxytryptamine receptor 1E (Homo sapiens) (UniProt P28566); conditions: Compound concentration 10.0 uM
[14] = target: 5-hydroxytryptamine receptor 2A (Homo sapiens) (UniProt P28223); conditions: Compound concentration 10.0 uM
[15] = target: T1, 5-hydroxytryptamine receptor 2B; conditions: Compound concentration 10.0 uM
[16] = target: 5-hydroxytryptamine receptor 2C (Homo sapiens) (UniProt P28335); conditions: Compound concentration 10.0 uM
[17] = target: 5-hydroxytryptamine receptor 3A (Homo sapiens) (UniProt P46098); conditions: Compound concentration 10.0 uM
[18] = target: 5-hydroxytryptamine receptor 5A (Homo sapiens) (UniProt P47898); conditions: Compound concentration 10.0 uM
[19] = target: 5-hydroxytryptamine receptor 6 (Homo sapiens) (UniProt P50406); conditions: Compound concentration 10.0 uM
[20] = target: 5-hydroxytryptamine receptor 7 (Homo sapiens) (UniProt P34969); conditions: Compound concentration 10.0 uM
[21] = target: D(1A) dopamine receptor (Homo sapiens) (UniProt P21728); conditions: Compound concentration 10.0 uM
[22] = target: D(2) dopamine receptor (Homo sapiens) (UniProt P14416); conditions: Compound concentration 10.0 uM
[23] = target: D(3) dopamine receptor (Homo sapiens) (UniProt P35462); conditions: Compound concentration 10.0 uM
[24] = target: D(4) dopamine receptor (Homo sapiens) (UniProt P21917); conditions: Compound concentration 10.0 uM
[25] = target: Sodium-dependent serotonin transporter (Homo sapiens) (UniProt P31645); conditions: Compound concentration 10.0 uM
[26] = target: T2, Sodium-dependent dopamine transporter; conditions: Compound concentration 10.0 uM
[27] = target: T4, GABA-A receptor; anion channel (Rattus norvegicus) (UniProt O09028+P15431+P18506+P18508+P19969+P20236+P23574+P23576+P28471+P28473+P30191+P62813+P63079+P63138+Q91ZM7+Q9ES14); conditions: Compound concentration 10.0 uM
[28] = target: Histamine H1 receptor (Homo sapiens) (UniProt P35367); conditions: Compound concentration 10.0 uM
[29] = target: Histamine H2 receptor (Homo sapiens) (UniProt P25021); conditions: Compound concentration 10.0 uM
[30] = target: Histamine H3 receptor (Homo sapiens) (UniProt Q9Y5N1); conditions: Compound concentration 10.0 uM
[31] = target: Histamine H4 receptor (Homo sapiens) (UniProt Q9H3N8); conditions: Compound concentration 10.0 uM
[32] = target: Alpha-1A adrenergic receptor (Homo sapiens) (UniProt P35348); conditions: Compound concentration 10.0 uM
[33] = target: Alpha-1B adrenergic receptor (Homo sapiens) (UniProt P35368); conditions: Compound concentration 10.0 uM
[34] = target: Alpha-2A adrenergic receptor (Homo sapiens) (UniProt P08913); conditions: Compound concentration 10.0 uM
[35] = target: Alpha-2B adrenergic receptor (Homo sapiens) (UniProt P18089); conditions: Compound concentration 10.0 uM
[36] = target: Alpha-2C adrenergic receptor (Homo sapiens) (UniProt P18825); conditions: Compound concentration 10.0 uM
[37] = target: Beta-2 adrenergic receptor (Homo sapiens) (UniProt P07550); conditions: Compound concentration 10.0 uM
[38] = target: Muscarinic acetylcholine receptor M1 (Homo sapiens) (UniProt P11229); conditions: Compound concentration 10.0 uM
[39] = target: Muscarinic acetylcholine receptor M2 (Homo sapiens) (UniProt P08172); conditions: Compound concentration 10.0 uM
[40] = target: Muscarinic acetylcholine receptor M3 (Homo sapiens) (UniProt P20309); conditions: Compound concentration 10.0 uM
[41] = target: Muscarinic acetylcholine receptor M4 (Homo sapiens) (UniProt P08173); conditions: Compound concentration 10.0 uM
[42] = target: Muscarinic acetylcholine receptor M5 (Homo sapiens) (UniProt P08912); conditions: Compound concentration 10.0 uM
[43] = target: Beta-3 adrenergic receptor (Homo sapiens) (UniProt P13945); conditions: Compound concentration 10.0 uM
[44] = target: T4, GABA-A receptor; anion channel (Rattus norvegicus); conditions: Compound concentration 10.0 uM; remark: listed apart in the source
Rattus norvegicus = species: Rattus norvegicus; conditions: Compound concentration 10.0 uM
[45] = target: Sigma intracellular receptor 2 (Homo sapiens) (UniProt Q5BJF2); conditions: Compound concentration 10.0 uM
[46] = target: GABA-A receptor; anion channel; test: GPCRScan assay: inhibition of GABAA/BZP; assay type: protein-complex assay, Rattus norvegicus; design: radioligand conc. used [nm] 0.6 – 4.0, parental cells brain tissue
Activin receptor type-1B [47] = target: T3, Activin receptor type-1B; test: NanoBRET (SGC Frankfurt) (ACVR1B)
TGF-beta receptor type-1 = TGF-beta receptor type-1 (Homo sapiens, UniProt P36897); test: NanoBRET (SGC Frankfurt) (TGFBR1)
[48] = target: D(1B) dopamine receptor (Homo sapiens) (UniProt P21918); conditions: Compound concentration 10.0 uM
[49] = target: Beta-1 adrenergic receptor (Homo sapiens) (UniProt P08588); conditions: Compound concentration 10.0 uM
[50] = target: Alpha-1D adrenergic receptor (Homo sapiens) (UniProt P25100); conditions: Compound concentration 10.0 uM

T1 sequence (P41595 whole entry): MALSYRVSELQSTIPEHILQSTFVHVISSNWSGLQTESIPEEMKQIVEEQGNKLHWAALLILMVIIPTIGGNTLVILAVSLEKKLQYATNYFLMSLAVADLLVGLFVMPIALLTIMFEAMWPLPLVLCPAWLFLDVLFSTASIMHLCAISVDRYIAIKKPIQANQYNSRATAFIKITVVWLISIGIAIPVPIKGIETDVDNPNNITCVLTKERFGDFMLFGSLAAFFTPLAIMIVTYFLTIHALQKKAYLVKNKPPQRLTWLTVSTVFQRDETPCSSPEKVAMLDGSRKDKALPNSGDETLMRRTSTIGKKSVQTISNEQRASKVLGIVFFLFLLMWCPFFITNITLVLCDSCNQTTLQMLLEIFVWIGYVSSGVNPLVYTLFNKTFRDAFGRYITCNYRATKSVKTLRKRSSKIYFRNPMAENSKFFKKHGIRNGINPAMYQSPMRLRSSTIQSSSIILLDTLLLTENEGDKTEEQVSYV
T2 sequence (Q01959 whole entry): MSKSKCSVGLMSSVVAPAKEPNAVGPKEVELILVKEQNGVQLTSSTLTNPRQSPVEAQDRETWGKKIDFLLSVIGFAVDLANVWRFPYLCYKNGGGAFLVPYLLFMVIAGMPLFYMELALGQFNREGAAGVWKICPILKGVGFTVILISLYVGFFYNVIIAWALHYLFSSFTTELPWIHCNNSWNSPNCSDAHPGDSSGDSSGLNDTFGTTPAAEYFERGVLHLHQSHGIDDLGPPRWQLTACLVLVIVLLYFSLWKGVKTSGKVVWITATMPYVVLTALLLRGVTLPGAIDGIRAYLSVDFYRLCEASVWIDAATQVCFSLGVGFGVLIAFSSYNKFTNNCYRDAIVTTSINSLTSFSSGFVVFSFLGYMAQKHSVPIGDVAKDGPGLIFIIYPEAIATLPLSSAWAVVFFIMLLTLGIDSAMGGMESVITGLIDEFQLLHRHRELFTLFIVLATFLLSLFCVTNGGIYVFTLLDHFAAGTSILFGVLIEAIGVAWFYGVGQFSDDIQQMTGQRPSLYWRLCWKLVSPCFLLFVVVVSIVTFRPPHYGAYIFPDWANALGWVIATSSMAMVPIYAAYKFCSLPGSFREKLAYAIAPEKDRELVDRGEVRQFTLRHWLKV
Chain of Alpha-1B adrenergic receptor (Homo sapiens) (P35368 whole entry): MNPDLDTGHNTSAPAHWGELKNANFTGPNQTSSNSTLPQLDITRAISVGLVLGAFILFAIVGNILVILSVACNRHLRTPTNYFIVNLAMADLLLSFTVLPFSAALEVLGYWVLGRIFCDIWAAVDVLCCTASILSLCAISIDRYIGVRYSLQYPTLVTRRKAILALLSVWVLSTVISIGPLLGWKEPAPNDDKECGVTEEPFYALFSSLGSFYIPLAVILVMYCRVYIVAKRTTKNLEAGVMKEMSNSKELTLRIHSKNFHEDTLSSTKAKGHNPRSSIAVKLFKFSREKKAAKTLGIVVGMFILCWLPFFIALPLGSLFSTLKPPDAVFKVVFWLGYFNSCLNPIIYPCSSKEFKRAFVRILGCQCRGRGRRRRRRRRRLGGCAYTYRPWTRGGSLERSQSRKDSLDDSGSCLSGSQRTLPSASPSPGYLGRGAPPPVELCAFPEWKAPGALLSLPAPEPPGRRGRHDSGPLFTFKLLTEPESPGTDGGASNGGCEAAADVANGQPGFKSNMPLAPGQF
Chain of 5-hydroxytryptamine receptor 6 (Homo sapiens) (P50406 whole entry): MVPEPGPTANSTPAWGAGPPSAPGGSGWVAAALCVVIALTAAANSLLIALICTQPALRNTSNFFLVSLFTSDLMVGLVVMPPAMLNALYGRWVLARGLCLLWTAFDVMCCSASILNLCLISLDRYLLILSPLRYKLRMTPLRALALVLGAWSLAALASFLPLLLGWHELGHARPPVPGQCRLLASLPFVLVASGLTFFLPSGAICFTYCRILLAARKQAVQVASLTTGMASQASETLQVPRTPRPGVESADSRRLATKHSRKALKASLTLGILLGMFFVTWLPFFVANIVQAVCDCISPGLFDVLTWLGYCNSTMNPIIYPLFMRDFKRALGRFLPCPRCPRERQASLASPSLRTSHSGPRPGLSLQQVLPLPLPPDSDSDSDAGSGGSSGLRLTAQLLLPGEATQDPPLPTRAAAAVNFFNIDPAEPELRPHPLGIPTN
Chain of Muscarinic acetylcholine receptor M1 (Homo sapiens) (P11229 whole entry): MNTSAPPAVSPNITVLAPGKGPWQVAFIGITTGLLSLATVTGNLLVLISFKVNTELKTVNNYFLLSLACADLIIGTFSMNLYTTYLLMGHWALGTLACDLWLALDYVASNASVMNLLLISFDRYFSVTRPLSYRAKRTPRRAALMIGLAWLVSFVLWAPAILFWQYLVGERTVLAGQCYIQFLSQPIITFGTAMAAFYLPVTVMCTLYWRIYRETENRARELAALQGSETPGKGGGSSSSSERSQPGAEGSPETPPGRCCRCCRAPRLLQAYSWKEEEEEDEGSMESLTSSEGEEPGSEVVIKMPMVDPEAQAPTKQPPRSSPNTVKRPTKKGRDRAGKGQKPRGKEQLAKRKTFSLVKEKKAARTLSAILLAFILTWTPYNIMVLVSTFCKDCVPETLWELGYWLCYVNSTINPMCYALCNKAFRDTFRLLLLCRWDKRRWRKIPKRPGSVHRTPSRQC
Chain of Alpha-2B adrenergic receptor (Homo sapiens) (P18089 whole entry): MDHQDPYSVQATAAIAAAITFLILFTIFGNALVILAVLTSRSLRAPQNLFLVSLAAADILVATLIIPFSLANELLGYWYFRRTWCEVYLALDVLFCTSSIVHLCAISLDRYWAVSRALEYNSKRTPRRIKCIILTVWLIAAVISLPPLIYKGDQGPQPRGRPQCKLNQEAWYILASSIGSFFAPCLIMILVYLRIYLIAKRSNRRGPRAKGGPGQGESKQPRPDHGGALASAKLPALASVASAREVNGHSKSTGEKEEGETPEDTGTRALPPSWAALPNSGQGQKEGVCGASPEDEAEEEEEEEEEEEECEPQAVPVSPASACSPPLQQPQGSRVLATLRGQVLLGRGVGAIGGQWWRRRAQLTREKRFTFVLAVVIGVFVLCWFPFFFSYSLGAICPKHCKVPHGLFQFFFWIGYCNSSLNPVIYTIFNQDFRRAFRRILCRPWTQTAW
Chain of Sodium-dependent serotonin transporter (Homo sapiens) (P31645 whole entry, looked up): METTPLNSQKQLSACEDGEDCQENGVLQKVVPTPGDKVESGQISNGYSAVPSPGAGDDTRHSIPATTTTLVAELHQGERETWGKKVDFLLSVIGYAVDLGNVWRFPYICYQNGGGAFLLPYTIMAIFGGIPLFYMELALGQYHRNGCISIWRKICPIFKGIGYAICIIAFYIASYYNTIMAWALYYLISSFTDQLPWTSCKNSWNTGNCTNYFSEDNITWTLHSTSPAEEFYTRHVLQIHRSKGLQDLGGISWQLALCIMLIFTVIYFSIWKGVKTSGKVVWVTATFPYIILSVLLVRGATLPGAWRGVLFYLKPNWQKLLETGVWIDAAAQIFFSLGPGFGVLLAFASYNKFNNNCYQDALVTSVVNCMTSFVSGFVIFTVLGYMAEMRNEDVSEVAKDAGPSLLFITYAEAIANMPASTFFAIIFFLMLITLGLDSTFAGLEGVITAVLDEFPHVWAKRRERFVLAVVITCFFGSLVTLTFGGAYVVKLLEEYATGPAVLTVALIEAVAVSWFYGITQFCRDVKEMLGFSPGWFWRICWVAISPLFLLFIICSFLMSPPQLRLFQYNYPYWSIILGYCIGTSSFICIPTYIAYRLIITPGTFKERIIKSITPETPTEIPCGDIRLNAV
Chain of 5-hydroxytryptamine receptor 1B (Homo sapiens) (P28222 whole entry): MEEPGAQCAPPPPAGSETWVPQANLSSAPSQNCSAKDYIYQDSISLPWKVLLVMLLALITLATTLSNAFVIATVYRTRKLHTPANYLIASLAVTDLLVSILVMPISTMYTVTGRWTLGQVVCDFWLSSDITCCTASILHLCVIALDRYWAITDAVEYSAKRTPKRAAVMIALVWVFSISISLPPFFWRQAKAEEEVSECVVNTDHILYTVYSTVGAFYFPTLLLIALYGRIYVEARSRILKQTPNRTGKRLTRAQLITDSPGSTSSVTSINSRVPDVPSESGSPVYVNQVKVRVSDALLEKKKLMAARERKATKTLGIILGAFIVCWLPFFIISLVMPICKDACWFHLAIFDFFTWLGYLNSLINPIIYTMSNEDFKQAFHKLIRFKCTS
Chain of D(2) dopamine receptor (Homo sapiens) (P14416 whole entry): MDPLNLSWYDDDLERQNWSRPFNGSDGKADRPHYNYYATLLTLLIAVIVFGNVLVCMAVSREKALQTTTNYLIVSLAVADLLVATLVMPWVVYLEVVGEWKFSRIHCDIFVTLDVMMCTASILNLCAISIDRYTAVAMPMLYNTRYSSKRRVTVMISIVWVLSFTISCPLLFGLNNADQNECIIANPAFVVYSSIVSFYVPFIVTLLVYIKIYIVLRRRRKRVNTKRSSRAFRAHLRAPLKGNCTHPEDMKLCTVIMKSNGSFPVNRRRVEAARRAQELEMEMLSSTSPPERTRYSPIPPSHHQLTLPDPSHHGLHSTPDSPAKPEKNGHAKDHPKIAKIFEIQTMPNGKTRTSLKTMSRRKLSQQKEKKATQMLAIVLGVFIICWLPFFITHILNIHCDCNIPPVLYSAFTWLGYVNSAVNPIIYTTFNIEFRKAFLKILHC
Chain of Muscarinic acetylcholine receptor M2 (Homo sapiens) (P08172 whole entry): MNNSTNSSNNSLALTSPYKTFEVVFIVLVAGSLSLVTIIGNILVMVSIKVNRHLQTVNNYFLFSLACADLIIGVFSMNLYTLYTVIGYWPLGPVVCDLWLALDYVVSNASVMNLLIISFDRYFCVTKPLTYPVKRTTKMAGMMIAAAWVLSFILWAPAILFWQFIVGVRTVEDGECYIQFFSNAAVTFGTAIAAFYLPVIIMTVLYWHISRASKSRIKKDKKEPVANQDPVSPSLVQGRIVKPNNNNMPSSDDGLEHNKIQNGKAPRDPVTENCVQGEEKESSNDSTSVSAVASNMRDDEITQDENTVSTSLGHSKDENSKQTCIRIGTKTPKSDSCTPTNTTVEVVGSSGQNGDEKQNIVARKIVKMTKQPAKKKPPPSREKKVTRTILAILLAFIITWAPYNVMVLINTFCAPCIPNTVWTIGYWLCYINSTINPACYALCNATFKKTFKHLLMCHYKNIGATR

Cc1cnc(-c2cc(Cl)ccc2F)cc1-n1c(=O)n(CC(N)=O)c2cnccc21 [TP-008]
5: pKi [2]
active: IC50 (Activin receptor type-1B [3]) 1000 nM | IC50 (Activin receptor type-1B [4]) 526 nM | IC50 (Activin receptor type-1B [5]) 126 nM | inhibition [15] 70.5% | inhibition [26] 87.6%
1880 nM: Ki ([1]; read-out: Ki)
inactive: inhibition [10] 22.9% | inhibition [11] 19.5% | inhibition [12] 5.53% | inhibition [13] -5.81% | inhibition [14] -0.869% | inhibition [16] 15.5% | inhibition [17] -6.36% | inhibition [18] 16.8% | inhibition [19] -4.28% | inhibition [20] 3.98% | inhibition [21] 12.9% | inhibition [22] -5.48% | inhibition [23] 2.27% | inhibition [24] 5.41% | inhibition [25] 3.84% | inhibition [27] 27.3% | inhibition [28] 0.849% | inhibition [29] 6.53% | inhibition [30] 30.5% | inhibition [31] 26.6% | inhibition [32] -2.17% | inhibition [33] 3.76% | inhibition [34] -0.767% | inhibition [35] 18.1% | inhibition [36] -5.16% | inhibition [37] 13.9% | inhibition [38] -3.81% | inhibition [39] 2.23% | inhibition [40] -7.48% | inhibition [41] -3.08% | inhibition [42] -5.69% | inhibition [43] 3.94% | inhibition [44] 31.8% | inhibition (Rattus norvegicus) -8.98% | inhibition [45] -2.75%
> 20000 nM (not active): IC50 [6] | IC50 [7] | IC50 [8] | IC50 [9]
10000 nM: Ki [2]

Cc1cnc(-c2cc(Cl)ccc2F)cc1-n1c(=O)n(CC(N)=O)c2ccccc21 [Al11]
1590 nM: Ki ([1]; read-out: Ki)
1570 nM: Ki ([1]; read-out: pKi (converted))
active: inhibition [15] 72% | inhibition [44] 50.2%
inactive: inhibition [10] 12% | inhibition [11] -7.07% | inhibition [14] 11.2% | inhibition [16] 10.2% | inhibition [17] 19.9% | inhibition [18] -0.66% | inhibition [19] 14.1% | inhibition [20] 12.1% | inhibition [21] -2.08% | inhibition [22] -1.99% | inhibition [24] -1.38% | inhibition [48] 6.12% | inhibition [25] 14.3% | inhibition [26] -4.34% | inhibition [28] -2.43% | inhibition [30] -8.16% | inhibition [32] 0.25% | inhibition [33] 5.45% | inhibition [34] 3.1% | inhibition [35] 17.3% | inhibition [36] 17.9% | inhibition [49] 25.8% | inhibition [37] 16.7% | inhibition [38] -1.17% | inhibition [39] 14.4% | inhibition [40] -5.28% | inhibition [41] 3.09% | inhibition [42] 1.56% | inhibition [43] 9.94% | inhibition (Rattus norvegicus) 27.1% | inhibition [50] 2.71% | inhibition [45] 41.6%
2750 nM: Ki [46]
> 10000 nM (not active): IC50 (Activin receptor type-1B [47]) | IC50 (TGF-beta receptor type-1)
